# Target: T1, Neutrophil elastase (Homo sapiens, UniProt P08246)
# T1 sequence (P08246 whole entry): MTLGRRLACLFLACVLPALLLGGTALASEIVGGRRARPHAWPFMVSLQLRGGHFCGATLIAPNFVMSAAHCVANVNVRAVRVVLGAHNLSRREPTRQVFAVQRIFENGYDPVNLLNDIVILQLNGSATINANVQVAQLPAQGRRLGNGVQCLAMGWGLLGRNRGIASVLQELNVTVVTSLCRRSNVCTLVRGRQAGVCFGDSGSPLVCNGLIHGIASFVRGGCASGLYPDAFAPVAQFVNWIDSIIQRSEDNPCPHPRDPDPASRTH
# Assay: Tested for the rate constant against Human Leukocyte Elastase (HLE) inactivation
# Conditions: read-out: kon (M-1-s-1)
compound,measurement,value
"CO[C@H]1C(=O)N2C(C(=O)N3CCCC3C(=O)O)=C(COC(C)=O)CS(=O)(=O)[C@H]12 (stereo partly drawn) [1-(3-Acetoxymethyl-7-methoxy-5,5,8-trioxo-5lambda*6*-thia-1-aza-bicyclo[4.2.0]oct-2-ene-2-carbonyl)-pyrrolidine-2-carboxylic acid(L-658,758)]",kon,1800 M⁻¹ s⁻¹

# Reference: BindingDB's records for doi:10.1021/jm00049a020 (Pharmacia-Farmitalia Carlo Erba, 1994)
